ChEMBL document CHEMBL1201862, “PubChem BioAssay data set” (2004)
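Growth conditions: 96-well plates. Treatment: test compound, 48 hours, 5 concentrations. Analysis: linear interpolation between bracketing concentrations; unreached endpoints set to highest concentration. At the GI50, growth is halved.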 Calls of active or inactive are those of the source. Cut-off read from the data, not from the text of the source: active = GI50 up to about 1.1 µM and inactive = higher.

Tests used:
Test in all cases: NCI anticancer screen, dose series, 48 h
BT-549 = tested on: BT-549
DMS-114 = tested on: DMS-114
XF498 = tested on: XF498
HOP-18 = tested on: HOP-18
DMS-273 = tested on: DMS-273
M19-MEL = tested on: M19-MEL
RXF 631 = tested on: RXF 631
LXFL 529 = tested on: LXFL 529
786-0 = tested on: 786-0

Measured: GI50

Oc1ccc2ccccc2c1/N=N/c1ccccc1
inactive: BT-549 > 100 µM

CCN1CCC(O)(C(C(=O)O)c2ccccc2)CC1 (centres undefined)
inactive: BT-549 > 100 µM

CC1=C2C(O)C(C(C)C(=O)NC(C)C)CCC2(C)C=CC1=O (centres undefined)
inactive: DMS-114 > 100 µM | XF498 > 100 µM | HOP-18 > 100 µM | DMS-273 > 100 µM

COc1ccc(/C(Cl)=C(\C=O)c2ccc(F)cc2)cc1OC
inactive: M19-MEL 21 µM | DMS-114 14.4 µM | HOP-18 12.9 µM | DMS-273 27.4 µM | RXF 631 19.9 µM | LXFL 529 11.5 µM

Cc1cc(C)nc(NS(=O)(=O)c2ccc(NNC(=O)c3cccc4c(=O)c5ccccc5[nH]c34)cc2)n1
inactive: BT-549 53.5 µM | 786-0 > 100 µM

O=C(NC1C=Nc2ccc([N+](=O)[O-])cc2NC1=O)c1cc(Cl)cc([N+](=O)[O-])c1 (centres undefined)
inactive: M19-MEL > 100 µM | DMS-114 19.7 µM | XF498 > 100 µM | DMS-273 99.5 µM | LXFL 529 > 100 µM

COc1nc(C#CCC(C)O)nc(OC)n1 (centres undefined)
inactive: BT-549 18.4 µM

Cc1cn(C2CC(N)C(C(=O)NCC(=O)O)O2)c(=O)[nH]c1=O (centres undefined)
inactive: BT-549 > 100 µM

COC1OC2COC(c3ccccc3)OC2C(OC(=S)c2ccccc2)C1O (centres undefined)
inactive: BT-549 > 100 µM

N#CN=C(NCCO)NCCO
inactive: M19-MEL > 100 µM | DMS-114 > 100 µM | XF498 > 100 µM | HOP-18 45.1 µM | RXF 631 > 100 µM | LXFL 529 > 100 µM

C=CCc1c(O)c2c(c3oc(=O)cc(C)c13)CC(C)O2 (centres undefined)
inactive: M19-MEL 72.4 µM | DMS-114 > 100 µM | HOP-18 90.2 µM | DMS-273 > 100 µM | LXFL 529 > 100 µM

COC(=O)C(C(=O)C(=O)Nc1nnc(S)[nH]1)c1csc(-n2nc(-c3ccccc3)cc2-c2ccccc2)n1 (centres undefined)
inactive: M19-MEL > 100 µM | 786-0 > 100 µM | DMS-273 > 100 µM | LXFL 529 > 100 µM

COc1ccc(NC(=O)CC(=O)N2N=C(N3c4ccccc4Sc4ccccc43)CC2c2ccccc2)cc1 (centres undefined)
inactive: BT-549 > 100 µM | 786-0 > 100 µM
